Test results: patent US4444690A, “Technetium chelates” (priority 1982, dated 1984)
“Also recorded” adds a separate entry of the source. Read-outs that look alike come from different tables or passages of the source.

What was measured:
[1] = rats, 90 minutes; for biliary excretion of radioactivity in the absence of renal function: renal pedicles ligated
Description: (§1) Organ biodistribution and acute toxicity studies were carried out in mice, blood disappearance and bile appearance rates were determined by sampling of bood or bile in rats, and renal excretion rates of the two Tc-2,3-bis(mercaptoacetamido)propanoic acid components, Tc-DTPA, and OIH were determined in rabbits because of greater ease of urine sampling. The HPLC-purified Tc-2,3-bis(mercaptoacetamido)propanoate components were used directly except for dilution as necessary. In general HPLC collected volumes were 1 to 1.5 ml and were not diluted for rabbit studies, were diluted 2- to 10-fold for rat studies and were diluted about 20-fold for mouse studies. In most cases determinations were made with simultaneous administration of OIH.
These determinations were made in male Sprague-Dawley rats. For blood studies the animals were anesthetized with sodium pentobarbital, a line was placed in a femoral vein for tracer injections and hydration, and another was placed in a carotid artery for blood sampling. About 20μCi (0.25 ml) each of OIH and Tc-99m complex under study were injected and 0.1 to 0.2 ml samples of blood were taken at 1, 2, 3, 4, 5, 6, 9, 12, 15, 20, 25, 30, 45, 60, 75, and 90 minutes after injection. Biliary excretion in the absence of renal function was determined by cannulating the common bile duct, ligating the renal pedicles, and collecting bile in 4-minute fractions for 90 minutes.

[2] = for renal excretion (urine appearance) in words: rabbits, FIG. 4
Description: as §1
The rate of renal excretion was measured in New Zealand albino male rabbits. They were anesthetized with ketamine and xylazine and placed on a gamma camera provided with digital storage. After injection of 0.5 to 1 mCi of the Tc-99m complex containing 0.5μCi of OIH, images were collected on tape for 45 minutes. At 35 minutes after injection, urine was expelled from the bladder and the percentage of injected dose contained in the expelled urine was determined. Accumulation of bladder radioactivity was monitored by placing a region of interest over the bladder. The drop in the radioactivity in the bladder after expelling the urine sample (50-80% of the bladder radioactivity) allowed calibration of the bladder time-activity curve in terms of percent injected dose.

[3] = Blood disappearance rates in rats (FIG. 3); format: in vivo, male Sprague-Dawley rats; conditions: rats; for blood disappearance in words: FIG. 3
From the text: These determinations were made in male Sprague-Dawley rats.

renal tubular transport = conditions: mouse, in vivo
Description: A dose of 50 mg/kg of probenicid was given 10 minutes prior to injection of radiochemicals. OIH was injected simultaneously.
*Values are mean and S.E.M. percent injected dose at 10 min. post

plasma proteins = experiment: Plasma protein binding, ultrafiltration; format: in vitro ADME
Description: Studies of protein binding were carried out in plasma using an ultrafiltration method described at J.Nucl.Med. 22, 258-263, 1981.

[4] = Organ biodistribution time course of Tc-CO2-DADS components in mice (Table 1); format: in vivo, Hal Cr female albino mice; conditions: mice; for Blood / Intestines / Stomach / Urine / Kidneys / Liver: mean of 6; for renal excretion / clearance in words: comparison with OIH or component A
Description: The time course of organ distribution was determined in groups of six Hal Cr female albino mice. They were injected with 0.10 ml (0.5 uCi) of the preparation. For comparison purposes, 0.2 uCi OIH was added to each injection. The mice were placed in metabolic cages for the collection of excreted urine. At indicated intervals after injection, the urethra was ligated and the mice killed with chloroform vapor. The organs were removed and counted in a dual channel counter with correction for I-131 crossover into the Tc-99m channel.

[5] = mice, mean of 6
Description: The time course of organ distribution was determined in groups of six Hal Cr female albino mice. They were injected with 0.10 ml (0.5 uCi) of the preparation. For comparison purposes, 0.2 uCi OIH was added to each injection. The mice were placed in metabolic cages for the collection of excreted urine. At indicated intervals after injection, the urethra was ligated and the mice killed with chloroform vapor.

[6] = in vivo; cited from earlier work
[7] = animals with normal renal function
[8] = 5 min post injection, listed as Tc--CO2 --DADS--A
[9] = 5 min post injection, listed as component A
[10] = 10 min post injection, listed as Tc--CO2 --DADS--A
[11] = 30 min post injection, listed as Tc--CO2 --DADS--A
[12] = 120 min post injection, listed as Tc--CO2 --DADS--A
[13] = 10 min post injection, listed as Tc--CO2 DADS--B
[14] = 120 min post injection, listed as Tc--CO2 DADS--B
[15] = 120 min post injection, 120 min

O=C(O)C1C[N]2C(=O)C[S][99Tc-]23(=[O])[S]CC(=O)[N]13 (single isomer, unassigned) [Tc-2,3-bis(mercaptoacetamido)propanoate-A] [Tc-99m-2,3-bis(mercaptoacetamido)propanoate]
radioactivity in muscle ([1]; absence of renal function): 22% | radioactivity in the blood ([1]; absence of renal function): 21% | radioactivity in the kidneys ([1]; absence of renal function): 1% | radioactivity in the liver ([1]; absence of renal function): 4% | radioactivity in the spleen ([1]; absence of renal function): 0.1% | radioactivity in the stomach ([1]; absence of renal function): 0.3% | biliary excretion of radioactivity in the absence of renal function [1]: less than 3% | biliary excretion of radioactivity in the absence of renal function ([1]; listed as Tc-99m-2,3-bis(mercaptoacetamido)propanoate-A): 3.1% | rate of renal excretion in words [2, 7]: equivalent to OIH | specificity for renal excretion [2, 7]: nearly complete | renal excretion (urine appearance) in words [2]: slightly greater extent than OIH although differences were only significant at 35 minutes (p<0.05) | renal excretion (urine appearance) in words ([2]; listed as Component A): slightly faster than OIH from 10 minutes onward | time at which radioactivity remaining in the blood was 2% [3]: 36 min | time at which radioactivity remaining in the blood was 5% [3]: 16.5 min | blood disappearance in words [3]: higher initial value resulted in comparable curve slopes | blood disappearance in words ([3]; listed as component A): comparable to or slightly greater than that of OIH | biliary excretion with probenicid, in words (renal tubular transport): not increased significantly | liver radioactivity with probenicid, in words (renal tubular transport): Biliary excretion was not increased significantly for component A, but liver radioactivity was | Blood (renal tubular transport; 10 min): 3.37 percent injected dose | Intestines (renal tubular transport; 10 min): 0.77 percent injected dose | Kidneys (renal tubular transport; 10 min): 2.53 percent injected dose | Liver (renal tubular transport; 10 min): 4.21 percent injected dose | protein binding in words (plasma proteins): high degree of protein binding | binding to plasma proteins (plasma proteins; 10 min): 93% | binding to plasma proteins (plasma proteins; 0.5 h): 94% | Blood ([4]; 5 min post injection): 8.19 percent injected dose | Intestines ([4]; 5 min post injection): 1.61 percent injected dose | Stomach ([4]; 5 min post injection): 0.24 percent injected dose | Urine ([4]; 5 min post injection, listed as Tc-2,3-bis(mercaptoacetmido)propanoate-A, 5 min): 45 percent injected dose | Kidneys [4, 8]: 5.61 percent injected dose | Liver [4, 8]: 7.81 percent injected dose | Urine ([4]; 5 min post injection, listed as Tc--CO2 --DADS--A, 5 min): 45.52 percent injected dose | Kidneys [4, 9]: 5.6 percent injected dose | Liver [4, 9]: about 8 percent injected dose | Blood [4, 10]: 3.10 percent injected dose | Intestines [4, 10]: 0.82 percent injected dose | Kidneys [4, 10]: 2.23 percent injected dose | Liver [4, 10]: 4.26 percent injected dose | Stomach [4, 10]: 0.11 percent injected dose | Urine ([4]; 10 min post injection, listed as Tc--CO2 --DADS--A, 10 min): 67.97 percent injected dose | Blood ([4]; 15 min post injection): 1.95 percent injected dose | Intestines ([4]; 15 min post injection): 0.86 percent injected dose | Kidneys ([4]; 15 min post injection): 1.30 percent injected dose | Liver ([4]; 15 min post injection): 3.79 percent injected dose | Stomach ([4]; 15 min post injection): 0.09 percent injected dose | Urine ([4]; 15 min post injection): 75.08 percent injected dose | Intestines ([4]; 30 min post injection): 1.05 percent injected dose | Liver ([4]; 30 min post injection): 1.34 percent injected dose | Stomach ([4]; 30 min post injection): 0.07 percent injected dose | Urine ([4]; 30 min post injection): 80.82 percent injected dose | Kidneys ([4]; 30 min post injection, listed as Tc-2,3-bis(mercaptoacetmido)propanoate-A): less than 1 percent injected dose | Blood [4, 11]: 0.59 percent injected dose | Kidneys [4, 11]: 0.51 percent injected dose | Blood ([4]; 30 min post injection, listed as component A): 0.6 percent injected dose | Blood [4, 12]: 0.21 percent injected dose | Intestines [4, 12]: 1.46 percent injected dose | Kidneys [4, 12]: 0.25 percent injected dose | Liver [4, 12]: 0.78 percent injected dose | Stomach [4, 12]: 0.04 percent injected dose | Urine ([4]; 120 min post injection, listed as Tc--CO2 --DADS--A, 120 min): 86.57 percent injected dose | Liver ([4]; 120 min post injection, listed as component A): less than 1 percent injected dose | radioactivity seen in the intestine ([4]; at any time interval): ≤ 1.6% | renal excretion / clearance in words [4]: slightly higher than or comparable to OIH in renal excretion

O=C(O)C1C[N]2C(=O)C[S][99Tc-]23(=[O])[S]CC(=O)[N]13 (single isomer, unassigned) [Tc-2,3-bis(mercaptoacetamido)propanoate-B] [Tc-99m-2,3-bis(mercaptoacetamido)propanoate]
renal excretion (urine appearance) in words [2]: significantly lower at early times, but similar to component A and OIH at 35 minutes | renal excretion (urine appearance) in words ([2]; listed as Component B): always faster than Tc-DTPA, but significantly slower than OIH or component A at early times | blood disappearance in words [3]: faster than Tc-DTPA, was significantly slower than Tc-2,3-bis(mercaptoacetamido)propanoate-A | blood disappearance in words ([3]; listed as component B): significantly faster than Tc-DTPA | binding to plasma proteins (plasma proteins; 10 min): 87% | binding to plasma proteins (plasma proteins; 0.5 h): 90% | biliary excretion in words [4]: Negligible biliary excretion | Blood [4, 13]: 3.64 percent injected dose | Intestines [4, 13]: 1.00 percent injected dose | Kidneys [4, 13]: 2.87 percent injected dose | Liver [4, 13]: 14.83 percent injected dose | Stomach [4, 13]: 0.13 percent injected dose | Urine ([4]; 10 min post injection, listed as Tc--CO2 DADS--B, 10 min): 51.94 percent injected dose | Blood [4, 14]: 0.14 percent injected dose | Intestines [4, 14]: 0.21 percent injected dose | Kidneys [4, 14]: 0.14 percent injected dose | Liver [4, 14]: 3.71 percent injected dose | Stomach [4, 14]: 0.02 percent injected dose | Urine ([4]; 120 min post injection, listed as Tc--CO2 DADS--B, 120 min): 79.16 percent injected dose | renal excretion / clearance in words ([4]; listed as Tc-2,3-bis(mercaptoacetamido)proponoate-B): more slowly cleared; also recorded: renal excretion was only slightly lower than OIH determined simultaneously

O=C(O)C1C(C(=O)O)[N]2C(=O)C[S][99Tc-]23(=[O])[S]CC(=O)[N]13 (single isomer, unassigned) [Tc--99m--2,3--(MERCAPTOACETAMIDO) SUCCINATE Component A] [Tc-99m chelate of 2,3-bis(mercaptoacetamido)succinic acid]
Blood ([5]; 10 min post injection): 10.13 | Intestines ([5]; 10 min post injection): 2.16 | Kidneys ([5]; 10 min post injection): 3.41 | Liver ([5]; 10 min post injection): 5.80 | Stomach ([5]; 10 min post injection): 0.40 | Urine ([5]; 10 min post injection, 10 min): 32.32 | Blood ([5]; 120 min post injection): 0.44 | Intestines ([5]; 120 min post injection): 0.30 | Kidneys ([5]; 120 min post injection): 7.44 | Liver ([5]; 120 min post injection): 3.17 | Stomach ([5]; 120 min post injection): 0.03 | Urine [5, 15]: 77.73

O=C(O)C1C(C(=O)O)[N]2C(=O)C[S][99Tc-]23(=[O])[S]CC(=O)[N]13 (single isomer, unassigned) [Tc--99m--2,3--(MERCAPTOACETAMIDO) SUCCINATE Component B] [Tc-99m chelate of 2,3-bis(mercaptoacetamido)succinic acid]
Blood ([5]; 10 min post injection): 16.21 | Intestines ([5]; 10 min post injection): 2.88 | Kidneys ([5]; 10 min post injection): 3.43 | Liver ([5]; 10 min post injection): 7.06 | Stomach ([5]; 10 min post injection): 0.53 | Urine ([5]; 10 min post injection, 10 min): 19.32 | Blood ([5]; 120 min post injection): 0.87 | Intestines ([5]; 120 min post injection): 8.85 | Kidneys ([5]; 120 min post injection): 0.65 | Liver ([5]; 120 min post injection): 2.33 | Stomach ([5]; 120 min post injection): 0.49 | Urine [5, 15]: 66.92

Tc-99m diethylenetriaminepentaacetic acid [Tc-99m DTPA]
extraction efficiency [6]: ≤ 20%
